In paper PMC5650142, “GPR40 partial agonists and AgoPAMs: Differentiating effects on glucose and hormonal secretions in the rodent” (PLoS ONE, 2017):
“And” between values parts separate entries of the source, which are not always exact repeats. Identical values can stand only once.

Assays:
[1] = tested on: wild type and GPR40-/- mice; experiment: Mouse incretin measurements (plasma glucagon, wild type and GPR40-/- mice); assay type: in vivo; settings: for Plasma Glucagon: @ 30, individual animals (Fig 6A)
Protocol: Wild type and GPR40-/- mice were weighed the day prior to dosing. Food was removed from mice at lights on. 2 hours later mice were dosed via oral gavage (PO) at a volume of 10 ml/kg with vehicle (0.5% methylcellulose), AP1 at 30 mg/kg, or AP3 at 30 mg/kg. At 60 minutes post dose, mice were euthanized via CO2 asphyxiation. Blood was collected via cardiac puncture.
Blood for insulin, glucagon, GLP-1, GIP, and PYY measurements was collected into K2EDTA Microtainer tubes (BD, Franklin Lakes, NJ) pre-treated with DPP4 inhibitor (Millipore, Billerica, MA) and cOmplete™ Protease Inhibitor Cocktail Tablets (Roche Diagnostics, Indianapolis, IN). Tubes were centrifuged for 10 minutes at 5000 RPM, and plasma was aliquotted for analysis. Plasma insulin levels were measured via EIA (Mesoscale Discovery ELISA Kit, Gaithersburg MD). Rat plasma total GLP-1 was measured using Total GLP-1 (ver.2) Assay Kit (Cat#: K150JVC). The measurement of active GLP-1 was carried out in a similar manner as that described for total GLP-1 assay with the exception that MSD Active GLP-1 (ver. 2) assay kit (Cat# K150JWC) was used. Rat plasma glucagon was measured using an in-house glucagon assay developed as a MSD format sandwich immunoassay (Merck & Co., Inc., MRL, Kenilworth, NJ USA). The antibody specificity was cross validated via mass- spec using procedures described in Lee et al. Briefly, MSD Streptavidin Gold plates were coated with 2 μg/ml biotin mouse monoclonal antibody generated to glucagon. Test samples were added to the plates and a separate Sulfo- tagged monoclonal antibody was used to detect the captured glucagon protein (2 μg/ml). The ELISA was carried out in the standard reagents in the MSD format. The plate was read on the SECTOR Imager 6000 Reader. Metabolic hormones GIP (Gastric Inhibitory Polypeptide) and PYY (Peptide YY) were measured in rat plasma using the Rat Metabolic Magnetic Bead Panel (EMD Millipore, Billerica, MA). The assay was performed according to manufacturer protocol.

GK rats = experiment: GK rat chronic efficacy (28 days: glucose, food intake, body weight, GLP-1, GIP, PYY, insulin, glucagon); assay type: in vivo; set-up: Food Intake Over Time (Fig 3C) / Total Body Weight Change Over Time / Active GLP-1 Levels Over Time: unit not given here; settings: for Total Body Weight Change Over Time / Active GLP-1 Levels Over Time / GIP Levels Over Time / PYY Levels Over Time / Plasma Insulin Over Time: GK rats
Summary of the method: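 Daily oral gavage for 28 days, AP1 or AP3 at 30 mg/kg in 0.5% methylcellulose; MK-8666 at 30 mg/kg in feed. Fed glucose, food intake and weight on days 10, 17, 23, 28; glucose, GLP-1, GIP, PYY after 6 h fast, 1 h post dose. Hormones by MSD immunoassay or bead panel.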

COc1ccc(F)c(-c2ccc([C@@H]3CCc4ccc([C@H](C5CC5)[C@H](C)C(=O)O)cc4O3)cc2)c1 [AP1]
Plasma Glucagon ([1]; KO mice): 13.34 pg/mL and 13.81 pg/mL and 52.65 pg/mL and 26.95 pg/mL and 36.14 pg/mL and 35.65 pg/mL | circulating glucagon ([1]; WT mice, 30 mg/kg PO, 1h post dose): increase | Plasma Glucagon ([1]; WT mice): 101.77 pg/mL and 108.33 pg/mL and 114.33 pg/mL and 421.21 pg/mL and 183.75 pg/mL and 252.53 pg/mL and 120.41 pg/mL | Food Intake Over Time (Fig 3C) (GK rats; 30 mpk, Day 10): 14.85 and 15.61 and 15.57 and 15.255 and 16.22 | Food Intake Over Time (Fig 3C) (GK rats; 30 mpk, Day 17): 15.5286 and 15.8857 and 16.0214 and 17.2929 and 17.7357 | Food Intake Over Time (Fig 3C) (GK rats; 30 mpk, Day 23): 16.8417 and 19.1417 and 18.7583 and 18.725 and 18.4 | Food Intake Over Time (Fig 3C) (GK rats; 30 mpk, Day 28): 16.96 and 17.9 and 19.14 and 19.07 and 19.25 | Fed glucose on day 28 (Fig 3B) (GK rats; 30 mpk, day 28, fed, individual animals): 126 and 113 and 121 and 107 and 114 and 98 and 108 and 105 and 131 | fed blood glucose vs partial agonist MK-8666 (GK rats; GK rat, 30 mg/kg, day 28): significantly reduced | Total Body Weight Change Over Time (GK rats; 30 mpk, Day 0, individual animals (Fig 3D)): 0 | Active GLP-1 Levels Over Time (GK rats; 30 mpk, Day 0, individual animals (Fig 4B), 30 mg/kg): 1.001 and 1.9298 and 1.3237 and 1.012 and 1.8577 and 2.191 and 1.713 and 1.556 and 0.8866 and 1.073 | GIP Levels Over Time (GK rats; 30 mpk, Day 0, individual animals (Fig 4C), 30 mg/kg, in pg/mL (unit assumed)): 80.27 and 43.35 and 55.2 and 66.33 and 82.49 and 41.1 and 77.69 and 54.81 and 38.69 and 31.07 | PYY Levels Over Time (GK rats; 30 mpk, Day 0, individual animals (Fig 4D), 30 mg/kg): 60.82 and 59.71 and 48.43 and 38.89 and 91.83 and 69.38 and 126.38 and 46.38 (2×) and 80.42 | Plasma Insulin Over Time (GK rats; 30 mpk, Day 0, individual animals (Fig 5A), 30 mg/kg): 1.323 ng/mL and 1.278 ng/mL and 2.387 ng/mL and 1.318 ng/mL and 1.715 ng/mL and 1.561 ng/mL and 2.638 ng/mL and 2.341 ng/mL and 1.122 ng/mL and 2.349 ng/mL | Total Body Weight Change Over Time (GK rats; 30 mpk, Day 10, individual animals (Fig 3D), 30 mg/kg): 10 and 3 (2×) and 13 and 6 and 2 (3×) and -13 and 5 | Active GLP-1 Levels Over Time (GK rats; 30 mpk, Day 10, individual animals (Fig 4B), 30 mg/kg): 10.3955 and 6.299 and 7.593 and 12.0213 and 6.042 and 7.2 and 9.814 and 9.197 and 8.5449 and 7.4703 | GIP Levels Over Time (GK rats; 30 mpk, Day 10, individual animals (Fig 4C), 30 mg/kg, in pg/mL (unit assumed)): 505.7 and 493.84 and 467.75 and 217.82 and 519.4 and 141.67 and 384.6 and 413 and 296.23 and 81.09 | PYY Levels Over Time (GK rats; 30 mpk, Day 10, individual animals (Fig 4D), 30 mg/kg, in pg/mL (unit assumed)): 253.19 and 328.35 and 279.77 and 271.66 and 270.68 and 232.37 and 216.99 and 227.15 and 181.2 and 198.89 | Plasma Insulin Over Time (GK rats; 30 mpk, Day 10, individual animals (Fig 5A), 30 mg/kg): 1.155 ng/mL and 0.724 ng/mL and 1.551 ng/mL and 0.8718 ng/mL and 1.112 ng/mL and 0.8329 ng/mL and 1.613 ng/mL and 0.7139 ng/mL and 1.088 ng/mL and 1.543 ng/mL | Total Body Weight Change Over Time (GK rats; 30 mpk, Day 17, individual animals (Fig 3D), 30 mg/kg): 18 (2×) and 8 and 24 and 16 and 0 and 7 and -9 and 10 and 9 | Active GLP-1 Levels Over Time (GK rats; 30 mpk, Day 17, individual animals (Fig 4B), 30 mg/kg): 8.6 and 3.38 and 5.23 and 6.69 and 6.32 and 4.97 and 3.57 and 4.69 and 6.47 and 5.55 | GIP Levels Over Time (GK rats; 30 mpk, Day 17, individual animals (Fig 4C), 30 mg/kg, in pg/mL (unit assumed)): 378.278 and 410.03 and 370.39 and 471.66 and 268.89 and 337.14 and 352.79 and 447.92 and 402.03 | PYY Levels Over Time (GK rats; 30 mpk, Day 17, individual animals (Fig 4D), 30 mg/kg, in pg/mL (unit assumed)): 228.528 and 168.33 and 149.79 and 211.65 and 178.66 and 141.57 and 165.72 and 207.01 and 161.08 | Plasma Insulin Over Time (GK rats; 30 mpk, Day 17, individual animals (Fig 5A), 30 mg/kg): 1.312 ng/mL and 1.435 ng/mL and 1.262 ng/mL and 0.9925 ng/mL and 0.7824 ng/mL and 0.7213 ng/mL and 1.004 ng/mL and 1.148 ng/mL and 1.876 ng/mL and 2.528 ng/mL | Total Body Weight Change Over Time (GK rats; 30 mpk, Day 23, individual animals (Fig 3D), 30 mg/kg): 24 and 11 and 37 and 25 and 27 and 22 and 16 and -6 and 9 and 12 | Total Body Weight Change Over Time (GK rats; 30 mpk, Day 28, individual animals (Fig 3D), 30 mg/kg): 32 and 14 and 36 and 27 and 34 and 30 and 23 and 3 and 20 and 21 | Active GLP-1 Levels Over Time (GK rats; 30 mpk, Day 28, individual animals (Fig 4B), 30 mg/kg): 4.803 and 5.789 and 8.538 and 7.972 and 5.7178 and 6.58 and 6.497 and 8.013 and 7.134 and 7.267 | GIP Levels Over Time (GK rats; 30 mpk, Day 28, individual animals (Fig 4C), 30 mg/kg, in pg/mL (unit assumed)): 265.13 and 306.48 and 225.82 and 160.64 and 220.15 and 277.09 and 298.29 and 238.76 and 210.52 and 175.96 | PYY Levels Over Time (GK rats; 30 mpk, Day 28, individual animals (Fig 4D), 30 mg/kg, in pg/mL (unit assumed)): 152.15 and 162.1 and 214.06 and 98.83 and 138.17 and 173.94 and 241.37 and 220.84 and 169.14 and 119.76 | Plasma Insulin Over Time (GK rats; 30 mpk, Day 28, individual animals (Fig 5A), 30 mg/kg): 1.27 ng/mL and 1.377 ng/mL and 1.276 ng/mL and 0.4335 ng/mL and 1.675 ng/mL and 1.248 ng/mL and 2.339 ng/mL and 0.9305 ng/mL and 0.8869 ng/mL and 1.165 ng/mL
